Measurements from patent US12661353B2, “SPT5 inhibitors and uses thereof” (Yeda Research and Development Co. Ltd., priority 2020, dated 2026).

Assays:
Format in all cases: cell-based, human
[1] = tested on: TNF-α-induced genes / expressed genes; experiment: RNA-seq of 4sU-labeled newly synthesized RNA, with or without TNFα; settings: 4sU labeling
Description: Cells treated with DMSO or SPI-21 with or without TNFα were metabolically labeled with […] and then RNA was extracted, biotinylated and the newly synthesized transcripts were isolated with streptavidin magnetic beads and subjected to RNA-Seq. Reads were mapped and differentially expressed genes were determined.
(§1) High-throughput sequencing of the total, labeled and Run-On transcripts (RNA-Seq and Gro-seq)—_The RNA-Seq libraries were prepared by the Genomics unit in The Nancy and Stephen Grand Israel National Center for Personalized Medicine (G-INCPM, Weizmann Institute of Science). Samples from 2-hour SPI treatment were prepared using in-house mRNA Seq protocol and polyA capturing and those from 24-hpur and 4sU treatments were prepared using the same protocol w/o PolyA capture (with random hexamers), and sequenced using an Illumina HiSeq 2500 system yielding about 30M SE reads of 61 bases. The GRO-seq RNA samples were reverse transcribed and amplified (15 cycles) using in-house mRNA Seq protocol w/o PolyA capture (with random hexamers) and sequenced in one lane using an Illumina HiSeq High Output (480 million reads, yielding more than 100M SE reads of 47 bases per sample). Each RNA-Seq analysis was carried out using two independent replicates.
(§2) RNA-Seq and GRO-seq Bioinformatics analysis—_For the analysis of the 24 h, 4sU and GRO-seq data, we used the RNA-Seq pipeline of UTAP (Kohen et al. 2019) to determine the differentially expressed genes. For the 2-hour data, reads were mapped to the H. sapiens GRCh38 reference genome using STAR (Dobin et al., 2013) and expression levels for each gene were quantified using htseq-count (Anders et al., 2015). Differentially expressed genes were identified using DESeq2 (Love et al., 2014). […] The reads coverage was calculated using bed files containing the desired genomic regions and orientation (awk command) and the bedtools coverage tool (Quinlan et al., 2010).
To validate that the effects of SPIs are at the transcriptional level, cellular RNA was metabolically labeled with 4-thiouridine (4sU) for 2 hours in the presence of DMSO or SPI-21 in the presence or absence of TNFα. Newly synthesized labeled RNA was then purified and subjected to RNA-seq. […] Thus, the observed reduction in TNFα activation by SPI-21 is highly specific and is a consequence of diminished transcription.

[2] = tested on: replication-dependent histone genes; experiment: RNA-seq of 4sU metabolic labeling: replication-dependent histone genes
Description: as §1, §2
Since the RNA-seq following treatment with SPI-21 detects only polyadenylated transcripts and the treatment was effected for 2 hours, during which only a fraction of cells is in S-phase, an effect on histone genes was not found. Thus, to investigate further the regulation of histone genes by Spt5 using the identified SPIs, cells were treated for 24 hours with SPI-21 or SPI-18, to allow all cells to pass S-phase at least once. Following, mRNA was extracted and cDNA was prepared using random hexamers and the levels of 4 histone genes were determined. […] Spt5 requirement for expression of histone genes cannot be explained by a positive effect on elongation or mRNA processing since histone genes are very short and are intron-less. […] To resolve the discrepancy between the effect of Spt5 inhibition on steady-state levels and synthesis rate, the possibility that Spt5 is required for the processing of histone mRNAs was considered. In addition to the conserved stem-loop, histone genes have a canonical polyadenylation signal downstream of the stem-loop structure (FIG. 5B). It was therefore considered that Spt5 controls the choice between 3′ end processing via the stem-loop pathway or the polyadenylation pathway of histone pre-mRNAs. To this end, cDNA prepared by random hexamer and Poly-T the ratio between total and poly-A tailed histone genes was determined. […] Thus, the reduction in the histone gene expression upon Spt5 inhibition may be associated, at least in part, to a defect in 3′ end processing.

HSPA6 and HSPA1A = experiment: mRNA of heat shock genes HSPA6 and HSPA1A, HeLa, RT-qPCR
Description: RNA analysis—Total RNA was extracted using Tri-reagent (Bio-Lab Chemicals) and Direct-Zol™ RNA MiniPrep kit (Zymo Research). Following, cDNA was synthesized from […] of total RNA using a High-Capacity cDNA Reverse Transcription Kit (ABI, Thermo Fisher Scientific). cDNA samples were analyzed by quantitative PCR (qPCR) in a ViiA 7 Real-Time PCR System using Fast qPCRBIO SYBR Green Mix (PCR Biosystems).
A major limitation of KD and KO studies is the prolonged deficiency of the target protein. Small molecule inhibitors on the other hand, inactivate their target shortly following their application. […] Reads were aligned to the human genome and normalized expression of each gene was determined. Subsequently, the following ratios were calculated: TNFα vs. control, which describes the response to TNFα; SPI-21 vs. control, which describes the effect of SPI-21 on gene expression under basal conditions; and SPI-21+TNFα vs. TNFα, which describes the effect of SPI-21 under TNFα-induced conditions. […] To test this possibility, cells were treated with SPI-21 for 2 and 24 hours and the levels of the heat shock genes HSPA6 and HSPA1A were determined by RT-qPCR. […] To further test the idea of kinetically distinct Spt5 target genes, the global effect of long-term SPI-21 treatment (24 hours) was determined by RNA-seq and the affected genes between the short and long-term treatments were compared. […]

With `COc1ccc(C=CC(=O)c2cc(O)ccc2O)cc1` [SPI-21] the “fraction of TNF-α-induced genes downregulated” value ([1]; TNFα) was 61%, the “number of TNF-α-induced genes (of 467) downregulated” value ([1]; TNFα) was 285 genes and the “fraction of expressed genes downregulated” value ([1]; basal conditions) was 2.2%. The “number of expressed genes (of 13,890) downregulated” value ([1]; basal conditions) was 301 genes, the “HIST1H1B level, RNA-seq” value ([2]; 4sU labelling) was 1.3 and the “HIST1H1E level, RNA-seq” value ([2]; 4sU labelling) was 1.3. The “HIST1H2AG level, RNA-seq” value ([2]; 4sU labelling) was 1.3, the “HIST1H2AH level, RNA-seq” value ([2]; 4sU labelling) was 1.4 and the “HIST1H2AI level, RNA-seq” value ([2]; 4sU labelling) was 1.4. For the same compound, the “HIST1H2AK level, RNA-seq” value ([2]; 4sU labelling) was 1.1, the “HIST1H2AL level, RNA-seq” value ([2]; 4sU labelling) was 1.1 and the “HIST1H2BF level, RNA-seq” value ([2]; 4sU labelling) was 1.3. The “HIST1H3A level, RNA-seq” value ([2]; 4sU labelling) was 1.2, the “HIST1H3B level, RNA-seq” value ([2]; 4sU labelling) was 1.4 and the “HIST1H3D level, RNA-seq” value ([2]; 4sU labelling) was 1.4. For the same compound, the “HIST1H3F level, RNA-seq” value ([2]; 4sU labelling) was 1.3, the “HIST1H3G level, RNA-seq” value ([2]; 4sU labelling) was 1.4 and the “HIST1H4A level, RNA-seq” value ([2]; 4sU labelling) was 1.7. The “HIST1H4B level, RNA-seq” value ([2]; 4sU labelling) was 1.4, the “HIST1H4C level, RNA-seq” value ([2]; 4sU labelling) was 1.5 and the “HIST1H4D level, RNA-seq” value ([2]; 4sU labelling) was 1.6. For the same compound, the “HIST1H4H level, RNA-seq” value ([2]; 4sU labelling) was 1.3, the “HIST2H2AC level, RNA-seq” value ([2]; 4sU labelling) was 1.3 and the “HIST2H3D level, RNA-seq” value ([2]; 4sU labelling) was 1.4. The “histone gene transcription, in words” value ([2]; 4sU metabolic labeling) was “moderate increase”, the “levels of heat shock genes HSPA6 and HSPA1A” value (HSPA6 and HSPA1A; 2 hours treatment) was “strongly up-regulated” and the “extent of activation of HSPA6 and HSPA1A” value (HSPA6 and HSPA1A; 24 hours treatment) was “substantially smaller”.
